The target of one assay is T1, MAP4K1 (HPK1) (Homo sapiens, UniProt Q92918).
T1 construct: purchased Invitrogen
Nature of the assay: Inhibition of MAP4K1 biochemical enzymatic activity (EZReader 2 electrophoretic mobility shift assay). The settings on record: HPK1 (Invitrogen), S6K2tide 1.5 μM, 120 min; ATP 26 μM or 1000 μM (not stated which). From the text:
MAP4K1 (HPK1) and relevant off-target enzymatic activity was monitored using the Perkin Elmer electrophoretic mobility shift technology platform—the EZReader 2. […] Within the linear, steady-state phase of the kinase enzymatic reaction, the mixed pool of phosphorylated (product) and non-phosphorylated (substrate) peptides was passed through the microfluidic system of the PerkinElmer EZ Reader 2, under an applied electric potential difference. The presence of the phosphate group on the product peptide provided a difference in mass and charge between that of the substrate peptide, resulting in a separation of the substrate and product pools in the sample (Perrin et al. 2010). As the product and substrate peptide mixture passes the lasers within the instrument, these pools are detected (λex=488 nm, λem=568 nm) and resolved as separate peaks. The ratio between these peaks reflects the activity of the compound at that concentration, in that well, under those conditions.
Inhibitors were dissolved in 100% DMSO at a stock concentration of 10 mM. A 100×, 10-point, 4-fold serial dilution of each inhibitor was created in 100% DMSO either manually or on a Hamilton STAR liquid handler, starting at a relevant concentration, usually 1 mM. A volume of 0.130 μL of each concentration was transferred to the relevant wells of a 384-well plate (Greiner 781 201) in diplicate using a TTPLabtech Mosquito nano-litre dispenser. Using a Multidrop Combi, the remaining constituents of the kinase reaction were added to the 130 nL of dosed compound as follows (see table below for final reaction details):
Enzyme activity assays at the ^APPKM for ATP or 1 mM ATP: In each well of a 384-well plate, 0.1-15 nM of untreated enzyme was incubated in a total of 13 μL of buffer (100 mM HEPES pH 7.5, 0.015% Brij 35, 10 mM MgCl2, 1 mM DTT) with 1.5 μM fluorescent peptid and 20-1000 μM ATP, at 25° C., for 60-180 minutes in the presence or absence of a dosed concentration series of compound (1% DMSO final concentration). The kinase reactions were stopped by the addition of 70 μl of Stop buffer (100 mM HEPES pH 7.5, 0.015% Brij 35, 35 mM EDTA and 0.2% of Coating Reagent 3 (Caliper Lifesciences)). The plates were read on a Caliper EZReader 2 as described above.

Another assay concerns Primary T Cell. Nature of the assay: T cell enhancement of cytokines: IL2 measurement (HTRF) in expanded CD3+ T cells stimulated with anti-CD3/anti-CD28. It is filed as cell-based, human. The settings on record: Homo sapiens, T-cell, 24 h, plate-bound anti-CD3 and soluble anti-CD28, 24 h, read-out: IL-2 Primary T Cell EC50. As for the experimental part:
T cells are isolated from whole blood of healthy donors by immunomagnetic negative selection following manufacture's protocol (StemCell Technologies, human T cell isolation kit). Purity of isolated cells is assessed by flow cytometry and yields 95-98% CD3^+ T cells. For expansion of T cells, 1×10^6 cells/well are plated in serum free cell expansion media (ThermoFisher) containing 30U of recombinant human IL2 (R&D) and stimulated with 25 ul of CD3/CD28 beads (Invitrogen) in 24 well plates for 3-4 days. T cells are then expanded in 175 cm flasks and maintained at a cell density of 1 to 2.5×10^6 cells/ml days by addition of ⅔ of fresh media every 2-3 days. After 10-14 days, cells are frozen in BamBanker freezing media (Thermo) and stored in liquid nitrogen.
For IL2 measurement, expanded CD3+ T cells are dispensed at 100K cells/well (cultured in X-VIVO 10 Serum-free media) and are stimulated with plate-bound anti-CD3 and soluble anti-CD28 in the presence of vehicle or compound of the disclosure at various concentrations for 24 h. As outlined in the manufacturer's protocol (Cisbio), 16 μL of conditioned media is transferred to a white 384-well low volume plate. Following a 24 h incubation with the anti-IL2 antibodies, the homogenous time resolved fluorescence (HTRF) is measured.
Background: TR-FRET usually uses a lanthanide donor and a delayed reading to cut background.

The text below walks through data of patent publication US20240199648A1, “MAP4K1 INHIBITORS” (Blueprint Medicines Corporation, priority 2021, published 2024).

T1 sequence (Q92918 whole entry): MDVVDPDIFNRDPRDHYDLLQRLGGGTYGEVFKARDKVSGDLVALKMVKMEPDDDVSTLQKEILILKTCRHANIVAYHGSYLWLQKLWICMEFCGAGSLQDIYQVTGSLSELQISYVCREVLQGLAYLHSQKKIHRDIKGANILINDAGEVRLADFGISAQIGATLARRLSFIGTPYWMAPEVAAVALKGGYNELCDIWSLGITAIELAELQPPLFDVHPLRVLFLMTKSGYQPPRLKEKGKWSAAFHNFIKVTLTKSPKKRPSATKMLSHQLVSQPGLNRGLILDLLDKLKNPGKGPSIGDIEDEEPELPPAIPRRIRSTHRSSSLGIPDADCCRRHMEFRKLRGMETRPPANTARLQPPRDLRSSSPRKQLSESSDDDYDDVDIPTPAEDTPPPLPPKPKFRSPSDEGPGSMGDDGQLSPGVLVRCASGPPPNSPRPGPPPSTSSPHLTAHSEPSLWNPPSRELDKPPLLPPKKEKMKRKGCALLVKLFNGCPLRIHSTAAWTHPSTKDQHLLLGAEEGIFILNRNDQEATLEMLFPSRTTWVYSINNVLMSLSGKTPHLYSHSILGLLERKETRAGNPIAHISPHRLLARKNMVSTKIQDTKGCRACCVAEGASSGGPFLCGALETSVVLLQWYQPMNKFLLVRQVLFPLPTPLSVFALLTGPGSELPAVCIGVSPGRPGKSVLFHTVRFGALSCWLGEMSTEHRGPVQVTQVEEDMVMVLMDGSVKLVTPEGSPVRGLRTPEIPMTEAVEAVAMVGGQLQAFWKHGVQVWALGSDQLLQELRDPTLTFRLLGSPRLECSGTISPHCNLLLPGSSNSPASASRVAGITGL

In the case of `C[C@@H]1c2nc(Nc3cc4c(C(C)(C)N)cnc(OC5CC(C)(C(=O)N(C)C)C5)c4cn3)ccc2C(=O)OC1(C)C` (single isomer, unassigned) [Compound 81], the IC50 on MAP4K1 (HPK1) came out at 0.16 nM. Further, the EC50 in the assay with Primary T Cell was determined as 71.2 nM. Take `C[C@@H]1c2nc(Nc3cc4c(C(C)(C)N)cnc(O[C@@H]5CN(C(=O)[C@@H]6C[C@@H]6F)[C@H]5C)c4cn3)ccc2C(=O)OC1(C)C` [Compound 14]: on MAP4K1 (HPK1), the IC50 turned out to be 0.19 nM. In addition, in the assay on Primary T Cell, the EC50 amounted to 15.3 nM. For the molecule `CC(=O)N1CC(Oc2ncc(C(C)(C)N)c3cc(Nc4ccc5c(n4)[C@@H](C)[C@H](C)OC5=O)ncc23)C1` [Compound 1, (7S,8R)-2-((8-((1-acetylazetidin-3-yl)oxy)-5-(2-aminopropan-2-yl)-2,7-naphthyridin-3-yl)amino)-7,8-dimethyl-7,8-dihydro-5H-pyrano[4,3-b]pyridin-5-one], at MAP4K1 (HPK1), the half-maximal inhibitory concentration (IC50) is 0.18 nM. The EC50 in the assay with Primary T Cell came out at 34.7 nM.

Regarding `CC[C@@](C)(N)c1cnc(OC2CN(C(=O)C3CC3)C2)c2cnc(Nc3ccc4c(n3)[C@@H](C)[C@H](C)OC4=O)cc12` [Compound 49], on MAP4K1 (HPK1), the half-maximal inhibitory concentration (IC50) was 0.24 nM. The EC50 in the assay with Primary T Cell was 25.7 nM. For `COC[C@@](C)(N)c1cnc(OC2CN(C(C)=O)[C@H]2C)c2cnc(Nc3ccc4c(n3)[C@@H](C)C(C)(C)OC4=O)cc12` (some centres unmarked) [Compound 122], at MAP4K1 (HPK1), the IC50 was determined as 0.12 nM. In addition, the EC50 with Primary T Cell is 53.7 nM. Taken in the same sequence, the figures for `CCC(=O)N1CC(Oc2ncc(C(C)(C)N)c3cc(Nc4ccc5c(n4)[C@@H](C)C(C)(C)OC5=O)ncc23)C1` [Compound 6] were 0.2 nM and 22.5 nM. Turning to `CC[C@@](C)(N)c1cnc(OC2CN(C(C)=O)C2)c2cnc(Nc3ccc4c(n3)C(C)(C)COC4=O)cc12` [Compound 111], on MAP4K1 (HPK1), the IC50 worked out at 0.43 nM. In addition, in the assay on Primary T Cell, the EC50 is 9.6 nM. `C[C@@H]1OC(=O)c2ccc(Nc3cc4c(C(C)(C)N)cnc(OC5CN(C(=O)C6COC6)C5)c4cn3)nc2[C@H]1C` [Compound 54]: the IC50 at MAP4K1 (HPK1) was 0.21 nM. Further, in the assay with Primary T Cell, the EC50 was found to be 29.3 nM. For the molecule `C[C@@H]1OC(=O)c2ccc(Nc3cc4c(C(C)(C)N)cnc(OC5CN(C(=O)[C@@H]6C[C@@H]6F)C5)c4cn3)nc2[C@H]1C` [Compound 10], the IC50 on MAP4K1 (HPK1) was 0.13 nM. Also, the EC50 in the assay with Primary T Cell was found to be 8.1 nM.

With `CC[C@@](C)(N)c1cnc(OC2CN(C(=O)C3CC3)C2)c2cnc(Nc3ccc4c(n3)[C@@H](C)C(C)(C)OC4=O)cc12` [Compound 70], the concentration for half-maximal inhibition (IC50) on MAP4K1 (HPK1) stood at 0.18 nM. The EC50 with Primary T Cell is 12.5 nM. Taken in the same sequence, the figures for `CCC(=O)N1CC(Oc2ncc([C@](C)(N)COC)c3cc(Nc4ccc5c(n4)[C@@H](C)[C@H](C)OC5=O)ncc23)C1` [Compound 120] were 0.25 nM and 29.4 nM.

Take `C[C@@H]1c2nc(Nc3cc4c(C(C)(C)N)ccc(OC5CN(C(=O)C6CC6)C5)c4cn3)ccc2C(=O)OC1(C)C` [Compound 41]: on MAP4K1 (HPK1), the IC50 was 0.1 nM. On the same count and under the same terms, in the case of `CC[C@@](C)(N)c1cnc(OC2CN(C(C)=O)C2)c2cnc(Nc3ccc4c(n3)[C@@H](C)[C@H](C)OC4=O)cc12` [Compound 23] it was 0.32 nM; in that of `COCC(=O)N1CC(Oc2ncc(C(C)(C)N)c3cc(Nc4ccc5c(n4)[C@@H](C)C(C)(C)OC5=O)ncc23)C1` [Compound 61], 0.21 nM; in that of `CO[C@@H](C)C(=O)N1CC(Oc2ncc(C(C)(C)N)c3cc(Nc4ccc5c(n4)[C@@H](C)C(C)(C)OC5=O)ncc23)C1` (single isomer, unassigned) [Compound 86], 0.27 nM. Regarding `C[C@@H]1c2nc(Nc3cc4c(C(C)(C)N)cnc(OC[C@@H]5C[C@@H]5C(=O)N(C)C)c4cn3)ccc2C(=O)OC1(C)C` (single isomer, unassigned) [Compound 107], the IC50 on MAP4K1 (HPK1) turned out to be 0.31 nM. As for `CC(=O)N1CC(C)(Oc2ncc(C(C)(C)N)c3cc(Nc4ccc5c(n4)[C@@H](C)[C@H](C)OC5=O)ncc23)C1` [Compound 26], the half-inhibitory concentration (IC50) at MAP4K1 (HPK1) was found to be 0.31 nM. Still for that read-out and setting: under `COC1(C(=O)N2CC(Oc3ncc(C(C)(C)N)c4cc(Nc5ccc6c(n5)[C@@H](C)C(C)(C)OC6=O)ncc34)C2)CC1` [Compound 93] stands 0.17 nM; under `COC[C@@](C)(N)c1cnc(OC2CN(C(=O)C3CC3)C2)c2cnc(Nc3ccc4c(n3)[C@@H](C)C(C)(C)OC4=O)cc12` [Compound 16], 0.47 nM. For `COC(=O)N1CC(Oc2ncc(C(C)(C)N)c3cc(Nc4ccc5c(n4)[C@@H](C)C(C)(C)OC5=O)ncc23)C1` [Compound 38], the IC50 at MAP4K1 (HPK1) was determined as 0.23 nM. With `CC[C@H](N)c1cnc(OC2CN(C(=O)[C@@H]3C[C@@H]3F)C2)c2cnc(Nc3ccc4c(n3)[C@@H](C)[C@H](C)OC4=O)cc12` [Compound 59], the concentration for half-maximal inhibition (IC50) on MAP4K1 (HPK1) turned out to be 0.24 nM. As for `CC(=O)N(C)CCOc1ncc(C(C)(C)N)c2cc(Nc3ccc4c(n3)[C@@H](C)C(C)(C)OC4=O)ncc12` [Compound 28], the IC50 at MAP4K1 (HPK1) amounted to 0.29 nM. Still for that read-out and setting: in the case of `C[C@@H]1c2nc(Nc3cc4c(C(C)(C)N)cnc(O[C@H]5C[C@@H](C(=O)N6CC(F)C6)C5)c4cn3)ccc2C(=O)OC1(C)C` [Compound 94] it was 0.14 nM; in that of `C[C@@H]1c2nc(Nc3cc4c(C(C)(C)N)cnc(OC5CN(C(=O)[C@H]6C[C@@H]6C)C5)c4cn3)ccc2C(=O)OC1(C)C` [Compound 68], 0.16 nM.

For the molecule `COC1(C(=O)N2CC(Oc3ncc(C(C)(C)N)c4cc(Nc5ccc6c(n5)[C@@H](C)[C@H](C)OC6=O)ncc34)C2)CC1` [Compound 79], the IC50 at MAP4K1 (HPK1) is 0.31 nM.

Consider `CC(=O)N1CC(Oc2ncc(C(C)(C)N)c3cc(Nc4ccc5c(n4)[C@H](C)COC5=O)ncc23)C1` (single isomer, unassigned) [Compound 17], for which the IC50 at MAP4K1 (HPK1) is 0.49 nM. Consider `CC(=O)N1CC(Oc2ncc(C(C)(C)N)c3cc(Nc4ccc5c(n4)CCOC5=O)ncc23)C1` [Compound 108], for which the 50% inhibitory concentration (IC50) at MAP4K1 (HPK1) worked out at 2.86 nM. Same read-out and setting: in the case of `CCC(=O)N1CC(Oc2ncc(C(C)(C)N)c3cc(Nc4ccc5c(n4)[C@@H](C)[C@H](C)OC5=O)ncc23)C1` [Compound 2] it was 0.38 nM. On to `COC[C@@](C)(N)c1cnc(O[C@H]2CN(C(=O)C3CC3)[C@@H]2C)c2cnc(Nc3ccc4c(n3)[C@@H](C)[C@H](C)OC4=O)cc12` [Compound 89], for which the IC50 on MAP4K1 (HPK1) was determined as 0.35 nM. On the same count and under the same terms, under `C[C@@H]1C[C@H]1C(=O)N1CC(Oc2ncc(C(C)(C)N)c3cc(Nc4ccc5c(n4)[C@@H](C)C(C)(C)OC5=O)ncc23)C1` [Compound 66] stands 0.22 nM; under `C[C@@H]1OC(=O)c2ccc(Nc3cc4c(C(C)(C)N)cnc(OC5CN(C(=O)C6(C)CC6)C5)c4cn3)nc2[C@H]1C` [Compound 52], 0.18 nM; under `C[C@@H]1OC(=O)c2ccc(Nc3cc4c(C(C)(C)N)cnc(O[C@@H]5CCN(C(=O)C6CC6)C5)c4cn3)nc2[C@H]1C` [Compound 51], 0.36 nM. On to `CC(=O)N1CCC[C@@H]1COc1ncc(C(C)(C)N)c2cc(Nc3ccc4c(n3)[C@@H](C)C(C)(C)OC4=O)ncc12` [Compound 116], for which, on MAP4K1 (HPK1), the IC50 came to 1.13 nM. On the same count and under the same terms, in the case of `C[C@@H]1OC(=O)c2ccc(Nc3cc4c(C(C)(C)N)cnc(OC5CN(C(=O)[C@H]6CCCO6)C5)c4cn3)nc2[C@H]1C` [Compound 75] it was 0.38 nM. The same measure, in the same setting: under `C[C@@H]1OC(=O)c2ccc(Nc3cc4c(C(C)(C)N)cnc(OC5CN(C(=O)[C@H]6C[C@@H]6C)C5)c4cn3)nc2[C@H]1C` [Compound 47] stands 0.18 nM. Turning to `C[C@@H]1OC(=O)c2ccc(Nc3cc4c(C(C)(C)N)cnc(OC5CN(C(=O)C6(F)CC6)C5)c4cn3)nc2[C@H]1C` [Compound 60], the IC50 at MAP4K1 (HPK1) turned out to be 0.16 nM.

What is called IC50 is the point on the concentration scale where inhibition reaches its midpoint. A word on the EC50: it is the concentration needed to bring the measured effect to its halfway point.
